Data set [1] deals with A549 xenograft tumors. The data set can be described thus: A549 tumor bearing mice xenograft model, intratumoral administration (Example 8). Particulars: for tumor growth (tumor size): intratumoral 10 μL, 4 times on days 0, 4, 7 and 11, FIGS. 17 and 18; for survival rate: intratumoral, at and after the fourth administration, Kaplan Meier, FIG. 19.
Procedure: The prepared mice were randomized, divided into three groups, and treated with the prodrugs and controls. Group 1 was intratumorally injected with 10 μL of compound 9 produced in Production Example 5 as a control (n=10). Group 2 was intratumorally injected with 10 μL of doxorubicin (n=10).
Administrations were conducted 4 times in total on days 0, 4, 7, and 11 with the same doses. The tumor volumes of the mice were recorded every day based on an equation: V=W^2×L/2, where W and L represented the minor length and major length of the tumor, respectively. When the tumor reached 2,000 mm^3, the mice were sacrificed, and the survival rates were calculated using the Kaplan Meier method.
Another data set relates to MCF10A. Kind of data set: ATP assay (cytotoxicity assay), DOX-ABC and DOX. Particulars: 0.05-50 μM, 48 hours at 37° C., FIG. 16.
The test system of another data set is HeLa S3. Kind of data set: ATP assay (cytotoxicity assay), DOX-ABC and DOX. Conditions: HeLa S3, 0.05-50 μM, 48 hours at 37° C., FIG. 16.
A further data set relates to A549. Kind of data set: ATP assay (cytotoxicity assay), DOX-ABC and DOX. Conditions: A549, 0.05-50 μM, 48 hours at 37° C., FIG. 16.
A short description of data set [2]: Fluorescence spectra in water (0.2% DMSO). In kind it is physicochemical. Particulars: 2 μM in water (0.2% DMSO), FIG. 1. The text has this:
The results are shown in FIG. 1 (dashed line: compound 7, solid line: control compound).

The test system of data set [3] is HeLa S3 (human cervical cancer cells). The data set can be described thus: Fluorescence release, cell-based assay, time-dependent. Particulars: HeLa S3, 2 μM or 20 μM, real-time 30 minutes, FIGS. 6 and 7. As to the method: (§1) Fluorescence intensity was normalized for each cell line by the number of 10,000 cells. Results are shown in FIG. 6 (2 μM) and FIG. 7 (20 μM).

Data set [4] relates to MCF10A (normal human mammary cells). The data set is described as above. Conditions: 2 μM or 20 μM, real-time 30 minutes, FIGS. 6 and 7. As to the method: as §1
Data set [5] deals with A549 (human lung adenocarcinoma cells). Described as above. Particulars: A549, 2 μM or 20 μM, real-time 30 minutes, FIGS. 6 and 7. As to the method: as §1
A short description of data set [6]: Fluorescence release, HPLC analysis of mixture with glutathione. In kind it is physicochemical. Particulars: 20 μM in DMSO, GSH 1.0 eq, FIG. 8. The procedure:
(§2) To a solution of coumarin-ABC (compound 7) (2×10^−5 mmol, 1.0 eq) in DMSO (1 mL, [compound 7]=20 μM) was added glutathione (GSH) (2×10^−5 mmol, 1.0 eq) or acrolein (2×10^−5 mmol, 1.0 eq). The reaction liquid was stirred and the reaction mixture was subjected to HPLC analysis at different time intervals (30 minutes, 1 hour, 2 hours, 4 hours, and 12 hours). Conditions of reversed-phase HPLC were as follows: Column, Cosmosil 5C18-AR300 (manufactured by Nacalai Tesque, Inc.) 4.6×250 mm; Mobile phase A, 0.1% TFA in H2O; Mobile phase B, 0.1% TFA in CH3CN; Gradient elution, 0-4 min at 65% B, 4-14 min at 65-95% B, 14-20 min at 95% B; Flow rate at 1 mL/min; Fluorescence detection at 360/450 nm; Amount per injection 6 μL. Results are shown in FIG. 8 (GSH) and FIG. 9 (acrolein).

The subject of data set [7] is HeLa S3 (human cervical cancer cells). Kind of data set: Fluorescence release, cell-based assay, concentration-dependent. Particulars: FIG. 5. The source says: (§3) Fluorescence intensity was normalized for each cell line by the number of 10,000 cells.
Data set [8] has as its system MCF10A (normal human mammary cells). The description is as above. Particulars: 2-20 μM, FIG. 3.
Source text: as §3

In data set [9] the test system is A549 (human lung adenocarcinoma cells). The data set is described as above. Conditions: FIG. 4.
Source text: as §3

Data set [10] in a line: Fluorescence release, HPLC analysis of mixture with acrolein. Conditions: 20 μM in DMSO, acrolein 1.0 eq, FIG. 9. In kind it is physicochemical. As to the method: as §2
Data set [11] has as its system A549 xenograft tumors. The data set can be described thus: A549 tumor bearing mice xenograft model, intratumoral administration (Example 9). In kind it is in vivo. Conditions: intratumoral 10 μL, 4 times on days 0, 4, 7 and 11; FIG. 20.
The subject of data set [12] is A549 xenograft tumors. The data set can be described thus: A549 tumor bearing mice xenograft model, intratumoral administration (Example 6). Particulars: 12 times in consecutive days, mitomycin C 1.8 mg/kg, MMC-ABC 3.1 mg/kg, FIGS. 13 and 15.
Procedure: For all intratumoral injections and tumor measurements, mice were anesthetized with 2% isoflurane in oxygen at a 2.5-3.0 L/min flow rate.
A549 cells were obtained from stock lines kept in liquid nitrogen. These cells were cultured in Dulbeccos's modified eagle's medium (DMEM) (manufactured by FUJIFILM Wako Pure Chemical Corporation) supplemented with 10% fetal bovine serum (FBS) (manufactured by BioWest) and 1% penicillin-streptomycin (manufactured by Gibco). The cells were then incubated at 37° C. in a 5% CO2 humidified atmosphere.
A549 xenograft tumors were established in 6-week-old female nude mice BALB/cAJc1-nu/nu by subcutaneous injection of a suspension of 2.5-6.0×10^6 cells in 100 μL of cold 50% matrigel in unnourished DMEM into the right and left shoulders, and tumor growth was monitored. The mice were kept in controlled temperature, salinity, and aeration room with sufficient food and water for 12 hours day and 12 hours night. […]
The administrations were repeated 12 times in consecutive days with the same doses. The tumor volume and body weight of the mice were recorded every day based on an equation: V=W^2×L/2, where W and L represented the minor length and major length of the tumor, respectively. When the tumor reached 2,000 mm^3, the mice were sacrificed, and the survival rates were calculated using the Kaplan Meier method. […]

Consider `COc1cccc2c1C(=O)c1c(O)c3c(c(O)c1C2=O)C[C@@](O)(C(=O)CO)C[C@@H]3O[C@H]1C[C@H](NC(=O)OCc2cc(C(C)C)c(N=[N+]=[N-])c(C(C)C)c2)[C@H](O)[C@H](C)O1` [DOX-ABC], for which, in the data set with A549 xenograft tumors [1], the “tumor growth (tumor size)” value is given as “effective with respect to the tumor growth”. In addition, the survival rate in the data set on A549 xenograft tumors [1] amounted to 100%. The “cytotoxicity (cell viability)” value in the data set with MCF10A, in the data set on HeLa S3 and with A549 was “released free DOX specifically in cancer cells” each time.
For `Cc1cc(=O)oc2cc(NC(=O)OCc3cc(C(C)C)c(N=[N+]=[N-])c(C(C)C)c3)ccc12` [coumarin-ABC], in data set [2], the fluorescence emission entry is recorded as “did not emit fluorescence”. Moreover, the release of fluorescence result is “notably observed depending on the time” in data set [3]; “only slightly observed” in data set [4]; “notably observed depending on the time” in data set [5]; “notably observed” in [7] (HeLa S3, 2-20 μM, 60 minutes at room temperature, no NAc-Cys (conditions 1 and 3)); “low” in data set [7] (HeLa S3, pre-treated with 1 mM N-acetyl cysteine 2 hours (condition 2), 2-20 μM, 60 minutes); “hardly observed” in data set [8] (60 minutes at room temperature, no NAc-Cys (conditions 1 and 3)). Further, the release of fluorescence result in data set [8] (pre-treated with 1 mM N-acetyl cysteine 2 hours (condition 2), 60 minutes) was “hardly observed”; in data set [9] (A549, 2-20 μM, 60 minutes at room temperature, no NAc-Cys (conditions 1 and 3)), “notably observed”; in data set [9] (A549, pre-treated with 1 mM N-acetyl cysteine 2 hours (condition 2), 2-20 μM, 60 minutes) it was “low”. For the same compound, the “reaction with glutathione (GSH)” value in data set [6] is listed as “did not react with each other”. In data set [6] (left for 12 hours), the “state of the compound in the mixture with GSH” value is given as “did not change”. For the same compound, the reaction with acrolein entry in [10] was “rapidly reacted with each other”.
For the compound `COc1ccc(CC(NC(=O)OCc2cc(C(C)C)c(N=[N+]=[N-])c(C(C)C)c2)C(=O)NC2C(O)[C@H](n3cnc4c(N(C)C)ncnc43)O[C@@H]2CO)cc1` (some centres unmarked) [PUR-ABC], the tumor growth result in the data set on A549 xenograft tumors [11] is on record as “effective with respect to the tumor growth”.
On to `Cc1cc(C(C)C)c(N=[N+]=[N-])c(C(C)C)c1` [compound 9, 2-azido-1,3-diisopropyl-5-methylbenzene], for which the “tumor growth (tumor size)” value with A549 xenograft tumors [1] is recorded as “larger tumor size”.
Regarding `CO[C@@]12[C@H](COC(N)=O)C3=C(C(=O)C(C)=C(N)C3=O)N1C[C@@H]1N[C@@H]12` [mitomycin C], the side effect result in the data set with A549 xenograft tumors [12] was “inflammation on the whole body”.
`COc1cccc2c1C(=O)c1c(O)c3c(c(O)c1C2=O)C[C@@](O)(C(=O)CO)C[C@@H]3O[C@H]1C[C@H](N)[C@H](O)[C@H](C)O1` [doxorubicin, reference compound]: the “tumor growth (tumor size)” value in the data set with A549 xenograft tumors [1] was “effective with respect to the tumor growth”. For the same compound, in the data set with A549 xenograft tumors [1], the survival rate entry is listed as “suddenly decreased”. The “cytotoxicity (cell viability)” value in the data set with MCF10A is “nonspecifically exhibited cytotoxicity toward normal cells and cancer cells”; in the data set with HeLa S3 it was “nonspecifically exhibited cytotoxicity toward normal cells and cancer cells”; with A549, “nonspecifically exhibited cytotoxicity toward normal cells and cancer cells”.

The record behind these values is patent US20240002398A1, “COMPLEX, AND USE THEREOF” (RIKEN, priority 2020, published 2024).
